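All cell lines were grown in 96-well plates and treated with compound for 48 hours. Abbreviation: GI50, concentration required for 50% inhibition of growth. TGI marks complete inhibition of growth.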
Columns and labels:
Experiment in all cases: NCI-60 cell line screen, 48 h
CAKI-1 renal = system: CAKI-1 renal
SN12C renal = system: SN12C renal
MCF7 breast = system: MCF7 breast
IGROV1 ovarian = system: IGROV1 ovarian
NCI-H226 lung = system: NCI-H226 lung
A498 renal = system: A498 renal
SW-620 colon = system: SW-620 colon
MDA-MB-435 = system: MDA-MB-435
HCC-2998 colon = system: HCC-2998 colon
BT-549 breast = system: BT-549 breast

SMILES | GI50 (CAKI-1 renal) | TGI (CAKI-1 renal) | GI50 (SN12C renal) | TGI (SN12C renal) | GI50 (MCF7 breast) | TGI (MCF7 breast) | GI50 (IGROV1 ovarian) | TGI (IGROV1 ovarian) | GI50 (NCI-H226 lung) | TGI (NCI-H226 lung) | GI50 (A498 renal) | TGI (A498 renal) | GI50 (SW-620 colon) | TGI (SW-620 colon) | GI50 (MDA-MB-435) | TGI (MDA-MB-435) | GI50 (HCC-2998 colon) | TGI (HCC-2998 colon) | GI50 (BT-549 breast) | TGI (BT-549 breast)
Cc1nc2sc(C(=O)Nc3cccc4c3OCCO4)c(N)c2cc1C(C)O (configuration not stated) | 4.91 µM | > 100 µM | 5.65 µM | > 100 µM | 2.11 µM | > 100 µM | 4.84 µM | > 100 µM | > 100 µM | > 100 µM | 2.16 µM | 9.05 µM | 3.34 µM | > 100 µM | 0.454 µM | 3.54 µM | 13.7 µM | > 100 µM | – | –
COc1ccc(C)cc1-c1ccc(-c2cc(C)ccc2OC)o1 | – | > 100 µM | – | > 100 µM | – | – | – | > 100 µM | – | > 100 µM | – | > 100 µM | – | > 100 µM | – | – | – | > 100 µM | – | –
N/N=C1\C(=O)N(c2ccc(Cl)c(Cl)c2)C(=O)C1C(=O)Nc1ccc(Cl)c(Cl)c1 (configuration not stated) | – | – | – | > 100 µM | – | – | – | > 100 µM | – | – | – | > 100 µM | – | > 100 µM | – | – | – | > 100 µM | – | –
CC1(C)CCOC(Sc2ccccc2)C1 (configuration not stated) | – | > 100 µM | – | > 100 µM | – | – | – | > 100 µM | – | – | – | > 100 µM | – | > 100 µM | – | – | – | > 100 µM | – | –
COc1ccc(C2=NC(CO)[C@H](c3ccccc3)O2)cc1OC (some centres not stated) | – | > 100 µM | – | > 100 µM | – | – | – | > 100 µM | – | > 100 µM | – | > 100 µM | – | > 100 µM | – | – | – | > 100 µM | – | –
COc1ccc(/C(=N/O)c2cc(F)c(F)c(OC)c2F)cc1O | 0.538 µM | > 100 µM | 0.832 µM | > 100 µM | 0.329 µM | > 100 µM | 0.815 µM | > 100 µM | 15.8 µM | > 100 µM | 3.79 µM | > 100 µM | 0.435 µM | > 100 µM | – | – | 2.01 µM | > 100 µM | – | –
Oc1ccc(Br)cc1C=Nc1ccc(Oc2ccc(N=Cc3cc(Br)ccc3O)cc2)cc1 | – | > 19.6 µM | – | > 19.6 µM | – | – | – | > 19.6 µM | – | > 19.6 µM | – | > 19.6 µM | – | > 19.6 µM | – | – | – | > 19.6 µM | – | –
CC[P+](C)(C)CC | – | – | – | > 100 µM | – | – | – | > 100 µM | – | > 100 µM | – | – | – | > 100 µM | – | – | – | > 100 µM | – | –
Cc1c(C(=O)Nc2ccc(Oc3ccnc4cc(OCC(C)(C)O)ccc34)c(F)c2)c(=O)n(-c2ccccc2)n1C | – | – | – | – | – | – | – | – | – | – | – | – | – | – | – | – | > 100 µM | > 100 µM | 4.53 µM | > 100 µM
O=[N+]([O-])c1cc2c(ccc3ccccc32)o1 | 0.31 µM | 3.06 µM | 0.568 µM | 22.7 µM | 0.212 µM | 3.01 µM | 0.703 µM | 5.56 µM | 1.27 µM | 4.22 µM | 0.127 µM | 0.277 µM | 0.404 µM | 5.91 µM | 0.158 µM | 0.35 µM | 0.252 µM | 0.823 µM | – | –
CC1Nc2ccccc2NC1C=C(C#N)C#N (configuration not stated) | – | 28.9 µM | – | 30.1 µM | – | – | – | 37.8 µM | – | 36.9 µM | – | – | – | 25.1 µM | – | – | – | 32.8 µM | – | –
O=C1CC[C@@H]2[C@H]3CCC(=O)c4c3c(c3cccc(O)c3c4O)O[C@@]23C(=O)c2cccc(O)c2C(O)=C13 | – | – | 61.4 µM | > 100 µM | > 100 µM | > 100 µM | > 100 µM | > 100 µM | > 100 µM | > 100 µM | – | – | > 100 µM | > 100 µM | – | – | – | – | > 100 µM | > 100 µM
Cc1ccccc1-c1cc(=O)c2cc(C)c(C)c(C(=O)O)c2o1 | – | > 100 µM | – | > 100 µM | – | – | – | > 100 µM | – | > 100 µM | – | – | – | > 100 µM | – | – | – | > 100 µM | – | –
Cc1nc2ccccc2c(/C=C/c2ccc(C(F)(F)F)cc2)c1C(=O)/C=C/c1ccccc1 | 1.23 µM | 2.51 µM | 1.54 µM | 3.01 µM | – | – | 1.12 µM | 3 µM | 1.6 µM | 3.14 µM | 1.69 µM | 3.13 µM | – | – | – | – | 1.57 µM | 3.29 µM | – | –
NNC(=S)N/N=C(\c1nc2ccc(Cl)cc2[nH]c1=O)C(O)c1cccc([N+](=O)[O-])c1 (configuration not stated) | – | > 100 µM | – | > 100 µM | – | – | – | > 100 µM | – | > 100 µM | – | > 100 µM | – | 41.9 µM | – | – | – | > 100 µM | – | –
O=C1CC2=CCCC2O1 (configuration not stated) | – | > 100 µM | – | > 100 µM | – | – | – | > 100 µM | – | – | – | > 100 µM | – | > 100 µM | – | – | – | > 100 µM | – | –

— PubChem BioAssay (NCI)
